Measured values from PMC10931833, “Simultaneous Purification of Human Interferon Alpha-2b and Serum Albumin Using Bioprivileged Fluorinated Ionic Liquid-Based Aqueous Biphasic Systems” (International Journal of Molecular Sciences, 2024).
Like-named read-outs stand apart in the source and are kept apart here.

Legend:
FITC-BSA = target: T1, FITC-BSA (Bos taurus, UniProt P02769); assay: MST binding to FITC-BSA; set-up: species or system bovine; settings: 0.41 μM BSA
T1 construct: purchased Millipore Sigma-Aldrich
T1 sequence (P02769 25-607): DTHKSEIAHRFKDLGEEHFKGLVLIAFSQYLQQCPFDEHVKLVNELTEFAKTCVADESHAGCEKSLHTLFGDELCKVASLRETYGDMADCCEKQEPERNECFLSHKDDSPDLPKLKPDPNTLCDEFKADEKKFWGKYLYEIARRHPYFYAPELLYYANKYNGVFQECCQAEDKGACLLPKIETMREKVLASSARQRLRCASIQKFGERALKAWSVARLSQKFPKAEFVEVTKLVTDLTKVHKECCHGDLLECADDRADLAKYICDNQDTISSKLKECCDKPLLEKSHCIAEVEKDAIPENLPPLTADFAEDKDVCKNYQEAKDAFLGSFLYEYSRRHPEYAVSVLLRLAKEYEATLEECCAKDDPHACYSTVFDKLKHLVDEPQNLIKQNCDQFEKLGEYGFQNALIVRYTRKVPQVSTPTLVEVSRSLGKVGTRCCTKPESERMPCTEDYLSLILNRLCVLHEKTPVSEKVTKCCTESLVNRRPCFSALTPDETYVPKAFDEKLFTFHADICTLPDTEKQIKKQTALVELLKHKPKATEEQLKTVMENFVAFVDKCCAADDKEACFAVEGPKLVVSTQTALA
Protocol: Herein, a commercial FITC labeling kit (Section 3) was used to fluorescently tag both IFN- α 2b and BSA. Typically, in the labeling process, one amine per protein is labeled, statistically distributing the position of the dye. […] The MST assay was performed as detailed in Section 3. The solutions were prepared with a concentration of IFN- α 2b and BSA fixed at 0.41 μ M in water. For IFN- α 2b a concentration of 2.7 μ M was also prepared to compare it with previous results on MST-binding between FILs and IFN- α 2b fluorescently labeled with a different tag. In each run of MST, a maximum concentration of a ligand is selected and consecutively diluted in sixteen capillaries. […] The experimental conditions of the MST assay only allow the study of the aggregation phenomenon individually for the first CAC.
(§1) Microscale thermophoresis (MST) measurements of the dye-labeled protein were used to conduct binding investigations. […] MST tests were conducted in a monolith NT.115 (blue/red) in accordance with the NanoTemper Technologies methodology. Medium MST power and 20% LED power (nano-blue) were set as the instrument’s default settings. For every MST measurement, a PBS buffer was used. The concentration of FITC-BSA was fixed at 0.4 μ M and FITC-IFN- α 2b was tested under two different concentrations (of 0.4 and 2.7 μ M). The ligand was used to create a set of 16 1:1 dilutions, with the starting ligand concentrations ranging from 10 to 400 mM. The typical parameters for MST traces were used for recording: […], 30 s MST power on, and 5 s MST power off. The data from three independently conducted pipetted experiments were examined using NanoTemper Technologies’ MO.Affinity Analysis software, version 2.3.

BSA = target: T2, BSA (Bos taurus, UniProt P02769); assay: CD thermal unfolding (Tm) of BSA; assay type: physicochemical, bovine; settings: 1.0 mg/ml BSA, 200 mM component aqueous solution
T2 construct: purchased Millipore Sigma-Aldrich
T2 sequence (P02769 25-607): as above
From the text: The thermal stability assessed by far-UV CD is solely determined through the thermal decay of the alpha-helical structure.

FITC-IFN-α2b = target: T3, FITC-IFN-α2b (Homo sapiens, UniProt P01563); assay: MST binding to FITC-IFN-α2b
T3 construct: single non-glycosylated polypeptide chain with a molecular weight of 19 kDa, comprising 165 amino acids; purchased Millipore Sigma-Aldrich SRP4595-100UG; host or cells: E. coli
T3 sequence (P01563 24-188): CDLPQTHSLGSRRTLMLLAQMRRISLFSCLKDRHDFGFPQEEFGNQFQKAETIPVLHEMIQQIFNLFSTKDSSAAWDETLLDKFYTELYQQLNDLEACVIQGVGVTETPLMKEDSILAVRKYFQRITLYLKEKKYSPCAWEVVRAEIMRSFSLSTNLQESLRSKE
Protocol: Typically, in the labeling process, one amine per protein is labeled, statistically distributing the position of the dye. Consequently, the risk of the label impairing the binding is minimal, given the typical number of lysine residues in proteins. […] The MST assay was performed as detailed in Section 3. […] For IFN- α 2b a concentration of 2.7 μ M was also prepared to compare it with previous results on MST-binding between FILs and IFN- α 2b fluorescently labeled with a different tag. In each run of MST, a maximum concentration of a ligand is selected and consecutively diluted in sixteen capillaries. […] The experimental conditions of the MST assay only allow the study of the aggregation phenomenon individually for the first CAC. For the MST runs with the concentration of the first capillary above the second CAC, the determined K d values for the runs that yield binding are influenced by several aggregates, making it impossible to attribute the K d value to a specific CAC. However, K d comprises the influence of the distinct aggregates of the FIL on binding affinity with both proteins, allowing a qualitative analysis of the impact of the different aggregates on binding affinity.
as §1

IFN-α2b [1] = target: T4, IFN-α2b (Homo sapiens, UniProt P01563); assay: CD thermal unfolding (Tm) of IFN-α2b; assay type: physicochemical; settings: 0.125 mg/ml IFN-α2b, 200 mM component aqueous solution
T4 construct: single non-glycosylated polypeptide chain with a molecular weight of 19 kDa, comprising 165 amino acids; purchased Millipore Sigma-Aldrich SRP4595-100UG; host or cells: E. coli
T4 sequence (P01563 24-188): as above
Protocol: The same analyses attained for 208 nm and 192 nm are illustrated in Figures S5 and S6 in the Supplementary Materials. The corresponding T m values are estimated by fitting to a sigmoid with four parameters (one-way ANOVA, significance level of 0.05) and summarized in Table S2 in the Supplementary Materials. The CD T m of 0.125 mg/mL native IFN- α 2b is in good agreement with what was previously reported. […] The estimated T m values are summarized in Table S2 in the Supplementary Materials. The same analysis is attained for 208 nm and 192 nm, as depicted in Figures S5 and S6 in the Supplementary Materials. All the CD T m results are summarized in Table S2 in the Supplementary Materials. The thermal stability assessed by far-UV CD is solely determined through the thermal decay of the alpha-helical structure.
The same analysis was attained for 208 nm and 192 nm as illustrated in Figure S13 in the Supplementary Materials. The corresponding T m values are depicted in Table 5, and were estimated by fitting a sigmoid with four parameters (one-way ANOVA, with a significance level of 0.05).

[2] = set-up: method as in earlier work; settings: aqueous solution at 25 °C, ref 3 (supplement; main text ref 71), cited from earlier work; for 1st CAC / 2nd CAC / 3rd CAC: ITC ([C2C1Im][C4F9SO3]) or conductometry ([N1112(OH)][C4F9SO3])
IFN-α2b [3] = target: T4, IFN-α2b; assay: Far-UV CD secondary structure of IFN-α2b (CONTIN-LL deconvolution); assay type: physicochemical; settings: 0.125 mg/mL IFN-α2b, 200 mM component, 25 °C
From the text: Circular dichroism (CD) is widely used to study the secondary structures of proteins, peptides and nucleic acids, because it requires a low concentration sample, is a nondestructive method, allows studying a wide range of variables (temperature, pH, etc.), and provides information on the effect of added ligands on protein folding and interactions.
Circular dichroism (CD) spectra were collected in a 10 mm quartz cuvette and a Chirascan spectropolarimeter (Applied Photophysics, UK) at room temperature. All CD spectra were recorded in the far-UV range of 190 to 260 nm at scan rates of 50 nm/min, with 4 accumulations, and a response time of 3 s; CD spectra were collected. For each CD experiment, two distinct duplicates were acquired and combined. […] Spectral deconvolution was carried out with DichroWeb using the CONTIN-LL deconvolution algorithm with the SMP180 reference set.

[4] = max. conc. first capillary below 1st CAC (monomer)

Row | Compound | Tm, Ellipticity 208 nm (BSA) | Tm, Ellipticity 192 nm (IFN-α2b [1]) | 1st CAC [2] | 2nd CAC [2] | 3rd CAC [2] | Distorted Alpha Helix (IFN-α2b [3]) | Distorted Beta Sheet (IFN-α2b [3]) | Regular Alpha Helix (IFN-α2b [3]) | Regular Beta Sheet (IFN-α2b [3]) | Turns (IFN-α2b [3]) | Unordered (IFN-α2b [3]) | Kd (FITC-BSA; [4]) | also measured
1 | CCCCn1cc[n+](C)c1.O=S(=O)([O-])C(F)(F)F [[C4C1Im][CF3SO3], 1-butyl-3-methylimidazolium trifluoromethanesulfonate] | 77.089 °C |  |  |  |  |  |  |  |  |  |  |  | Kd (FITC-BSA; max. conc. first capillary 12.5 mM (monomer)): no binding detected; Kd (FITC-BSA; max. conc. first capillary 400 mM (monomer)): no binding detected; Tm, Ellipticity 192 nm (BSA): 75.050 °C; Tm, Ellipticity 222 nm (BSA): 74.833 °C
2 | CCn1cc[n+](C)c1.O=S(=O)([O-])C(F)(F)C(F)(F)C(F)(F)C(F)(F)F [1-ethyl-3-methylimidazolium perfluorobutane sulfonate] |  | 53.633 °C | 14.40 mM | 34.48 mM | 76.54 mM | 0.153 | 0.069 | 0.292 | 0.05 | 0.204 | 0.232 | no binding detected | Kd (FITC-IFN-α2b; 0.41 μM IFN-α2b, max. conc. first capillary below 1st CAC (monomer)): no binding detected; Kd (FITC-IFN-α2b; 0.41 μM IFN-α2b, max. conc. first capillary in 2nd CAC range, 25 °C, read-out: Kd): 710 ± 370 µM; Kd (FITC-IFN-α2b; 0.41 μM IFN-α2b, max. conc. first capillary in 4th CAC range, 25 °C, read-out: Kd): 6280 ± 1090 µM; Kd (FITC-IFN-α2b; 2.7 μM IFN-α2b, max. conc. first capillary in 1st CAC range, 25 °C, read-out: Kd): 9100 ± 6380 µM; Kd (FITC-IFN-α2b; 2.7 μM IFN-α2b, max. conc. first capillary in 3rd CAC range, 25 °C, read-out: Kd): 29900 ± 6270 µM; 4th CAC ([2]; ITC): 106.09 mM; Kd (FITC-BSA; max. conc. first capillary in 1st CAC range, read-out: Kd): 1610 ± 390 µM; Kd (FITC-BSA; max. conc. first capillary in 2nd CAC range, read-out: Kd): 1730 ± 420 µM; Kd (FITC-BSA; max. conc. first capillary in 3rd CAC range, read-out: Kd): 2860 ± 1460 µM; Kd (FITC-BSA; max. conc. first capillary in 4th CAC range): no binding detected
3 | C[N+](C)(C)CCO.O=S(=O)([O-])C(F)(F)C(F)(F)C(F)(F)C(F)(F)F [[N1112(OH)][C4F9SO3], (2-hydroxyethyl)trimethylammonium perfluorobutane sulfonate] | 92.409 °C | 35.992 °C | 16.02 mM | 35.17 mM | 185.65 mM | 0.148 | 0.064 | 0.303 | 0.071 | 0.188 | 0.226 | no binding detected | Tm, Ellipticity 208 nm (IFN-α2b [1]): 61.234 °C; Tm, Ellipticity 222 nm (IFN-α2b [1]): 56.542 °C; Kd (FITC-BSA; max. conc. first capillary in 3rd CAC range): no binding detected
